Data set [1] has as its target PI3Kα (Homo sapiens, UniProt P42336). Kind of data set: PI3Kα enzyme activity inhibition IC50 evaluation assay (ADP-Glo Kinase Assay). Type of data set: biochemical. Particulars: ATP 25 μM, PIP2 50 μg/mL, 1 hour room temperature, read-out: PI3K-α IC50. As for the experimental part: (§1) Effec Example 1 IC50 evaluation assay for PI3Kα, PI3Kδ, PI3Kβ and PI3Kγ enzyme activity inhibition
(§2) The experiment was performed using the ADP-Glo Kinase Assay kit, following the instructions. The following buffer solutions were prepared: 50 mM HEPES, pH 7.5, 3 mM MgCl2, 1 mM EGTA, 100 mM NaCl, 0.03% CHAPS, 2 mM DTT. The test compound samples were dissolved in DMSO and added to the screening system at a certain starting concentration such as 10 μM, 3-fold dilution, while setting up both DMSO control and no kinase control. The optimal concentrations of PI3Kα, PI3Kδ, PI3Kβ and PI3Kγ enzymes, substrate (PIP2) and ATP were prepared in buffer. The enzyme reaction system included: buffer, ATP 25 μM, kinase substrate (PIP2, 50 μg/mL), kinases [PI3Kα (0.15 μg/mL), PI3Kδ (1.2 μg/mL), PI3Kβ (0.3 μg/mL) and PI3Kγ (2.5 μg/mL)], etc. The reaction system was reacted at room temperature for 1 hour. The reaction was terminated by adding a termination reagent (ADP-Glo reagent, 5 μL), and the ADP content in the system was detected using a detection reagent (Kinase Detection Reagent, 10 μL). Signal data were collected using the Envision instrument. Calculate the percentage of (%) inhibition according to the following formula: % inhibition=(DMSO control signal value−sample signal value)/(DMSO control signal value−no-kinase control signal value). The IC50 value was obtained by fitting the curve using the formula Y=Bottom+(Top-Bottom)/(1+(IC50/X)^HillSlope).

Data set [2] addresses PI3Kβ (Homo sapiens, UniProt P42338). Kind of data set: PI3Kβ enzyme activity inhibition IC50 evaluation assay (ADP-Glo Kinase Assay). Type of data set: biochemical. Particulars: ATP 25 μM, PIP2 50 μg/mL, 1 hour room temperature, read-out: PI3K-β IC50. As for the experimental part:
as §1, §2
A general note: ADP-Glo turns the ADP formed in a reaction into a luminescent signal.

Data set [3] has as its target PI3Kγ (Homo sapiens, UniProt P48736). Kind of data set: PI3Kγ enzyme activity inhibition IC50 evaluation assay (ADP-Glo Kinase Assay). The data set is classed as biochemical. The following applies: ATP 25 μM, PIP2 50 μg/mL, 1 hour room temperature, read-out: PI3K-γ IC50. As for the experimental part:
as §1, §2

Data set [4] addresses PI3Kδ (Homo sapiens, UniProt O00329). Kind of data set: PI3Kδ enzyme activity inhibition IC50 evaluation assay (ADP-Glo Kinase Assay). Type of data set: biochemical. Particulars: ATP 25 μM, PIP2 50 μg/mL, 1 hour room temperature, read-out: PI3K-δ IC50. On the procedure:
as §1, §2

Data set [5] has as its target T1, HDAC6 (Homo sapiens, UniProt Q9UBN7).
T1 sequence (Q9UBN7 1-1215): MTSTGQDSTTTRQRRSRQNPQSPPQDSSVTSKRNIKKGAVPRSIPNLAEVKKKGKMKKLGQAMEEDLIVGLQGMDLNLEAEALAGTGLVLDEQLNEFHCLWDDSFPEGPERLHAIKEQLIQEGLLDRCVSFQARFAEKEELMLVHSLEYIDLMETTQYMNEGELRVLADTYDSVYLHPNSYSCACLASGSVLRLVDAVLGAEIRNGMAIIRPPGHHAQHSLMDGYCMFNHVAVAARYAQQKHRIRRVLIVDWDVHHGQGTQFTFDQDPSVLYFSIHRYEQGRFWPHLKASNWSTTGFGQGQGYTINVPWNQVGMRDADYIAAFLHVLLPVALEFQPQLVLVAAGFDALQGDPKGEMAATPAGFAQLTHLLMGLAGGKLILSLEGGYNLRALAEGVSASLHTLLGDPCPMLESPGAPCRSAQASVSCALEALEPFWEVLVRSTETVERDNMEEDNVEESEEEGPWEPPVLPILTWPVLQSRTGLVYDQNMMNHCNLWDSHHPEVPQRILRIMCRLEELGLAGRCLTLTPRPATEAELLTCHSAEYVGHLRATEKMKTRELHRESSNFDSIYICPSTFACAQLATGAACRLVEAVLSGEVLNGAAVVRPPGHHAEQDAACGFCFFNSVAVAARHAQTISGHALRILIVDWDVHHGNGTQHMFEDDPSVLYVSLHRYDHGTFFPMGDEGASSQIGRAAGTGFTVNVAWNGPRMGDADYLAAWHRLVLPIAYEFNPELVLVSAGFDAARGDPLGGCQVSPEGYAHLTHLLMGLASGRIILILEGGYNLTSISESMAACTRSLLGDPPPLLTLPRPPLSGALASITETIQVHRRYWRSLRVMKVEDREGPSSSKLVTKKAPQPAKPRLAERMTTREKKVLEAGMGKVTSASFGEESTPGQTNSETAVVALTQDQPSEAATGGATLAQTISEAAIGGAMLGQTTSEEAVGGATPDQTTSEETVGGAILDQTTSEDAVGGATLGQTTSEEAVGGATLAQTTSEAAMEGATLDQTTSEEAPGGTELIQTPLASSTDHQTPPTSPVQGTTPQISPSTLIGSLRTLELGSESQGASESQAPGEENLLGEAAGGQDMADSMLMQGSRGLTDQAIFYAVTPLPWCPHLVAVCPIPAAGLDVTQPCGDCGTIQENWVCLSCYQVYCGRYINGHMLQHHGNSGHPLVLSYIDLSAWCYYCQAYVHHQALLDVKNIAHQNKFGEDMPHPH
Kind of data set: HDAC6 enzyme activity inhibition IC50 evaluation experiment. Particulars: HDAC6 5 nM, acetylated peptide 11 μM, trypsin, fluorescence. The data set is classed as biochemical. On the procedure: (§3) Effect Example 2 HDAC1, HDAC2, HDAC3, HDAC6 enzyme activity inhibition IC50 evaluation experiment
(§4) Buffer solution (50 mM Tris 7.5, 0.01% Tween-20, 50 mM NaCl) was prepared according to the kit instructions, and the enzyme solution and substrate solution (acetylated peptide with the addition of trypsin) were prepared using the buffer solution. The test compound samples were dissolved with DMSO and added to the screening system at a certain starting concentration such as 10 μM, 3-fold dilution, while setting up a DMSO control and no-enzyme control. The enzyme reaction system includes: buffer, enzyme [final concentration: HDAC1=10 nM, HDAC2=4 nM, HDAC3=7 nM, HDAC6=5 nM], substrate (acetylated peptide) [final concentration: Peptide(HDAC1)=8 μM, Peptide(HDAC2)=10 μM, Peptide(HDAC3)=5 μM, Peptide(HDAC6)=11 μM], trypsin [final concentration: Trypsin(HDAC1,2,3)=0.05 μM, Trypsin(HDAC6)=0.1 μM], etc. The enzymes and compounds were reacted at room temperature for 15 min. After adding the substrate and Trypsin, centrifugation was performed for 1 min, and the fluorescence signal data (excitation wavelength 355 nM/emission wavelength 460 nm) was read continuously for 60 min using Envision, and the linear reaction segment was selected to obtain the slope and thus calculate the inhibition rate at that concentration. The IC50 value was obtained by fitting the curve using the formula Y=Bottom+(Top-Bottom)/(1+(IC50/X)^HillSlope).

Data set [6] has as its system relapsed and/or refractory B-cell malignant hematologic neoplasms. Particulars: patients with relapsed and/or refractory B-cell malignant hematologic neoplasms, orally 80 mg once daily for 4 weeks; cited from earlier work.
Data set [7] has as its target HDAC1 (Homo sapiens, UniProt Q13547). Kind of data set: HDAC1 enzyme activity inhibition IC50 evaluation experiment. The data set is classed as biochemical. Particulars: HDAC1 10 nM, acetylated peptide 8 μM, trypsin, fluorescence. On the procedure: as §3, §4
The target of data set [8] is HDAC2 (Homo sapiens, UniProt Q92769). Kind of data set: HDAC2 enzyme activity inhibition IC50 evaluation experiment. The data set is classed as biochemical. The following applies: HDAC2 4 nM, acetylated peptide 10 μM, trypsin, fluorescence. As for the experimental part: as §3, §4
Sequence of HDAC2 (Q92769 whole entry, species assumed): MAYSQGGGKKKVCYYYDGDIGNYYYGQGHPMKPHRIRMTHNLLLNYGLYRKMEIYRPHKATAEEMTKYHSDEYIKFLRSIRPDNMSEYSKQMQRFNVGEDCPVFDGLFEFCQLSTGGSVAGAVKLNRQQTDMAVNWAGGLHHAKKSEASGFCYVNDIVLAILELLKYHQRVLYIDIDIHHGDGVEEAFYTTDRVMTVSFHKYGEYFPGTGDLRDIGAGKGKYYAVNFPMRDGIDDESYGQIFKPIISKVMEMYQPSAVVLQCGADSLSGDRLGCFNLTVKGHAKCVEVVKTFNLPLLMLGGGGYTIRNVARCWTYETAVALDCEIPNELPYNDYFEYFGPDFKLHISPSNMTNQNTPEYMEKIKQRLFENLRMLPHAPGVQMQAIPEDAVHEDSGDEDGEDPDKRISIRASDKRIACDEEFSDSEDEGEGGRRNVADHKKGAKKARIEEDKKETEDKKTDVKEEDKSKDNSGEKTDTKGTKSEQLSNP

Sequence of PI3Kδ (O00329 whole entry, species assumed): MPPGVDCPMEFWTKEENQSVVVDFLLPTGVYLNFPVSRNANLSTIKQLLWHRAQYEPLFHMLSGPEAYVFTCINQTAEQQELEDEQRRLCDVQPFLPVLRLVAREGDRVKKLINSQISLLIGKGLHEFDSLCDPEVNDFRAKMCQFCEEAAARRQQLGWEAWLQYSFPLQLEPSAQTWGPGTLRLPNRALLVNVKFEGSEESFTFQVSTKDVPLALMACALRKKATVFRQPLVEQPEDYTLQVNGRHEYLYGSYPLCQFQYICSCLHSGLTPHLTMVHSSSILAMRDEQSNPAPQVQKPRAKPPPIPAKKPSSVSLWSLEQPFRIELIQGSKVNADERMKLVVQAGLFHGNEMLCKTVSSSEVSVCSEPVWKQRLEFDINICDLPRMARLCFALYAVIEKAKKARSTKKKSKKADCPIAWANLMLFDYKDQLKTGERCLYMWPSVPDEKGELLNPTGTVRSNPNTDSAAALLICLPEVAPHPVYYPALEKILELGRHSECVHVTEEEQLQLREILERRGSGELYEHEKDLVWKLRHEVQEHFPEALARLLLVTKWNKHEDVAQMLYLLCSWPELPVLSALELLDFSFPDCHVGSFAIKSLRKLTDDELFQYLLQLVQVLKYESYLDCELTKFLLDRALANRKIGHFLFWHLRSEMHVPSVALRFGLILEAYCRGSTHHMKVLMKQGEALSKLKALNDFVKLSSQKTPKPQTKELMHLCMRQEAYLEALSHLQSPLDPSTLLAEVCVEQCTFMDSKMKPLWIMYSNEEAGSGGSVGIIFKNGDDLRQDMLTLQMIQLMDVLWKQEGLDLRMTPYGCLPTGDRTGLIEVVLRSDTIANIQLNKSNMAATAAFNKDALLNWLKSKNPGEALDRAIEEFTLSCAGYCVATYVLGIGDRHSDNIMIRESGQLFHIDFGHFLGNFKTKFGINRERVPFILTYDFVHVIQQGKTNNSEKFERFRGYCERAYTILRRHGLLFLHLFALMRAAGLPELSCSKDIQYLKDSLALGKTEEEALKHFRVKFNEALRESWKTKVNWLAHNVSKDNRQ
Sequence of PI3Kδ (P27986 whole entry partner, species assumed): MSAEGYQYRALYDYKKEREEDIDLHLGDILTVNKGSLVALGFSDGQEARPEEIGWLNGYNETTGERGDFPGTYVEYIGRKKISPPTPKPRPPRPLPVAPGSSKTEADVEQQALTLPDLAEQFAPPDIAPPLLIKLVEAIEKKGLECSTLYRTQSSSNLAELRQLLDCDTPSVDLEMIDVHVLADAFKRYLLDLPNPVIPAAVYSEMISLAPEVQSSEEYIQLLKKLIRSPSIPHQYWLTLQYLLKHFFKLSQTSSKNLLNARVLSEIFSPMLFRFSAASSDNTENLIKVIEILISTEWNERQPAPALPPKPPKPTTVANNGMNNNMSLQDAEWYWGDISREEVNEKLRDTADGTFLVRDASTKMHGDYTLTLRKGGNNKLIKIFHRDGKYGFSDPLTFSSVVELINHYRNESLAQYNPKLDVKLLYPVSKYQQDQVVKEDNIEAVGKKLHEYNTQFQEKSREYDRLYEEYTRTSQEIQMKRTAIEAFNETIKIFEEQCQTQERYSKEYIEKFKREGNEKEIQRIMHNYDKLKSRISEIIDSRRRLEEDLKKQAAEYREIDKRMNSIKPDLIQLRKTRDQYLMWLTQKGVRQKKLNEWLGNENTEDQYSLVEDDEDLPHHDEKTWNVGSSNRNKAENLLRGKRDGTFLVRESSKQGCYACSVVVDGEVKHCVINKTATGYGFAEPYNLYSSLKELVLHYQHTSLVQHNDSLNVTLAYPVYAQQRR
Sequence of PI3Kα (P42336 whole entry, species assumed): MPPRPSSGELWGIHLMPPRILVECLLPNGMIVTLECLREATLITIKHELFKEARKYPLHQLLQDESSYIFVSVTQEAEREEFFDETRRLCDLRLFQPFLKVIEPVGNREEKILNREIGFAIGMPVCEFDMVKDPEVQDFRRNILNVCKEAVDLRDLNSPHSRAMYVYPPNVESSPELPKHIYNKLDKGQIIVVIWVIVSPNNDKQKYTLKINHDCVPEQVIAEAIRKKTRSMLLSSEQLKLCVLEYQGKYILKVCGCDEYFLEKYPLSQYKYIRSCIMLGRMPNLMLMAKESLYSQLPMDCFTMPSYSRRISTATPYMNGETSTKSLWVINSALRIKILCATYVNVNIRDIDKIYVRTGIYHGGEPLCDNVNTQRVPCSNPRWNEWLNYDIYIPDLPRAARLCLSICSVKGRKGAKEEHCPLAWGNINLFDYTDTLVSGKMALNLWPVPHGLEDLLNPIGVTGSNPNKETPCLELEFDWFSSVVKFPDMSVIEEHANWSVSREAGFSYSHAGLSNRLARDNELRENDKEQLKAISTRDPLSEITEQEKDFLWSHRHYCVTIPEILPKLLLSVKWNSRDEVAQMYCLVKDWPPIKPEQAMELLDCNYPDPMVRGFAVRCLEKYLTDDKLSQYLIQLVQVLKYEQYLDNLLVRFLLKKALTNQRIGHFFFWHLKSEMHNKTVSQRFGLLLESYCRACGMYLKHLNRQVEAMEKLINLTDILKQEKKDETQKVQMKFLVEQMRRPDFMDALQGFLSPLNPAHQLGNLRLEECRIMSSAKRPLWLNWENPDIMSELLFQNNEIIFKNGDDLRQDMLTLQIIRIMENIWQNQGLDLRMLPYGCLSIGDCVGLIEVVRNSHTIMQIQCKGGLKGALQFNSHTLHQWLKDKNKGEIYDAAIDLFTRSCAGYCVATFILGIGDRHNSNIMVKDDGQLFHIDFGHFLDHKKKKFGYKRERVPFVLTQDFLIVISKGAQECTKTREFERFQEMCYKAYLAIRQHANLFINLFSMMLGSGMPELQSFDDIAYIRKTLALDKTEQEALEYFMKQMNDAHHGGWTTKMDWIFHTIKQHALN
Sequence of PI3Kα (P27986 whole entry partner, species assumed): as the sequence (P27986 whole entry partner, species assumed) above
Sequence of HDAC1 (Q13547 whole entry, species assumed): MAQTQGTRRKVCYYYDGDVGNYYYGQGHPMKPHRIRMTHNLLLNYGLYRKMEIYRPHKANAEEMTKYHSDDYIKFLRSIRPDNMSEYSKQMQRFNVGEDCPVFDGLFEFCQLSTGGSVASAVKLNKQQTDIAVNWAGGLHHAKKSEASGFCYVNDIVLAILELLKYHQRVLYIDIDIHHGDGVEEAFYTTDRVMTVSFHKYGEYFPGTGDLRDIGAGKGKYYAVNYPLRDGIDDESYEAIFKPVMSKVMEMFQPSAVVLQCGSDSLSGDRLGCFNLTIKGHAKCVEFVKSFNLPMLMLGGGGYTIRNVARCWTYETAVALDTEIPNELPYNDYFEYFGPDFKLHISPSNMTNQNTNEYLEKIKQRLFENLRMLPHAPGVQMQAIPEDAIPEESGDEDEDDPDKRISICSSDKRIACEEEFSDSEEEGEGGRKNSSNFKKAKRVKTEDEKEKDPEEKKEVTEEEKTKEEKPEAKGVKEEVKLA
Sequence of PI3Kβ (P42338 whole entry, species assumed): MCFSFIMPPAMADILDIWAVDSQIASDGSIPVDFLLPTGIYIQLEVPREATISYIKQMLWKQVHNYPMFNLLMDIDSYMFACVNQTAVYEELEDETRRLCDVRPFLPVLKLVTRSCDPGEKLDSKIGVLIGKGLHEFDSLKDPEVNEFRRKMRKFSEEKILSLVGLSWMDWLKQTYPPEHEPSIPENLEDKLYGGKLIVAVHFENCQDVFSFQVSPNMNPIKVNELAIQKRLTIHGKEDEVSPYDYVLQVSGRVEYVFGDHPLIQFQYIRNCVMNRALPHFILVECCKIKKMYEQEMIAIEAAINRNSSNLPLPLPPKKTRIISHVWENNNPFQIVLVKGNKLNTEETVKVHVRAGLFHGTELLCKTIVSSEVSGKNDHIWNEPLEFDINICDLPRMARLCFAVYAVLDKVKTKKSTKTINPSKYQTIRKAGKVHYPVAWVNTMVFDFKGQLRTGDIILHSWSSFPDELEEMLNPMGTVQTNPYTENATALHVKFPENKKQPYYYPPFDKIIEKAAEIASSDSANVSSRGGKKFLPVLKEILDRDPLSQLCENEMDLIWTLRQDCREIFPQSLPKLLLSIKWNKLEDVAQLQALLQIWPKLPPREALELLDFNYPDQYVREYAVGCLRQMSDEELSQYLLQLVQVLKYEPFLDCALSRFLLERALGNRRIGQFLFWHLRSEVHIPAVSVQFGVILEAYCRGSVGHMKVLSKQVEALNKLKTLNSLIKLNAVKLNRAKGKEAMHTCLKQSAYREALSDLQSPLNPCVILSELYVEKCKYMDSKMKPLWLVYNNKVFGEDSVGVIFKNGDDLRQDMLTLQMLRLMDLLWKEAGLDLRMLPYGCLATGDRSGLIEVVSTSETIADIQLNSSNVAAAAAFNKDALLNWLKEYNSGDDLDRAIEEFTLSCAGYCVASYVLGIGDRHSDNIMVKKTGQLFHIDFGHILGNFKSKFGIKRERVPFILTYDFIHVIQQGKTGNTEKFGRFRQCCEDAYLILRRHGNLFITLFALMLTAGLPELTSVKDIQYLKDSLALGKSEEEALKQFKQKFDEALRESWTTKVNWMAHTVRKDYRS
Sequence of PI3Kβ (P27986 whole entry partner, species assumed): as the sequence (P27986 whole entry partner, species assumed) above

Regarding `COc1ncc(-c2nc(N3CCOCC3)nc3c(CN4CCC(C(C)(C)O)CC4)cc(F)cc23)cc1NS(C)(=O)=O` [YY-20394, N-(5-(6-fluoro-8-((4-(2-hydroxypropyl-2-yl)piperidin-1-yl)methyl)-2-morpholine-quinazolin-4-yl)-2-methoxypyridin-3-yl)methanesulfonamide, reference compound], the concentration for half-maximal inhibition (IC50) in data set [1] was 100 to 1000 nM; in data set [2], 100 to 1000 nM; in data set [3] it was more than 10000 nM; in data set [4], not above 10 nM; in data set [5], more than 10000 nM. Also, the “clinical benefit in clinical studies” value in data set [6] was “clinical benefit”. In data set [6], the “safety profile in clinical studies” value is recorded as “favorable safety profile”.

In the case of `COc1ncc(-c2nc(N3CCOCC3)nc3c(OCc4ncc(C(=O)NO)cc4F)cc(F)cc23)cc1NS(C)(=O)=O` [Compound 45], the 50% inhibitory concentration (IC50) in data set [4] fell in the range of 1000 to 10000 nM; in data set [5], 10 to 100 nM; in data set [7], 100 to 1000 nM; in data set [8] it was 1000 to 10000 nM.

For `COc1ncc(-c2nc(N3CCOCC3)nc3c(OC4CCN(c5c(F)cc(C(=O)NO)cc5F)CC4)cc(F)cc23)cc1NS(C)(=O)=O` [Compound 42], the 50% inhibitory concentration (IC50) lay in the range of 10 to 100 nM in data set [4], 100 to 1000 nM in data set [5] and 1000 to 10000 nM in data set [7].

As for `COc1ncc(-c2nc(N3CCOCC3)nc3c(OC4CCC(c5ccc(C(=O)NO)cc5F)CC4)cc(F)cc23)cc1NS(C)(=O)=O` (stereo not drawn) [Compound 41], the IC50 in data set [4] fell in the range of 100 to 1000 nM; in data set [5] it was 100 to 1000 nM; in data set [7], 1000 to 10000 nM.

With `COc1ncc(-c2nc(N3CCOCC3)nc3c(CN4CCc5cc(C(=O)NO)cc(F)c5C4)cc(F)cc23)cc1NS(C)(=O)=O` [Compound 43], the IC50 lay within 10 to 100 nM in data set [4], 100 to 1000 nM in data set [5] and 1000 to 10000 nM in data set [7].

`COc1ncc(-c2nc(N3CCOCC3)nc3c(CNc4ncc(C(=O)NO)cc4F)cc(F)cc23)cc1NS(C)(=O)=O` [Compound 35]: the results for the IC50 in data set [4], in data set [5] and in data set [7] were not above 10 nM, 10 to 100 nM and not above 10 nM, respectively.

Take `COc1ncc(-c2nc(N3CCOCC3)nc3c(OC4CCN(c5cc(C(=O)NO)no5)CC4)cc(F)cc23)cc1NS(C)(=O)=O` [Compound 44]: the IC50 in data set [4] was 10 to 100 nM; in data set [5], 10 to 100 nM; in data set [7] it was 100 to 1000 nM; in data set [8], 100 to 1000 nM.

In the case of `COc1ncc(-c2nc(N3CCOCC3)nc3c(CN4CC(OCCOCC(=O)NO)C4)cc(F)cc23)cc1NS(C)(=O)=O` [Compound 16], the IC50 in data set [1] is 100 to 1000 nM; in data set [4], 10 to 100 nM; in data set [5], 1000 to 10000 nM.

In the case of `COc1ncc(-c2nc(N3CCOCC3)nc3c(CN4CCC(C(=O)NO)CC4)cc(F)cc23)cc1NS(C)(=O)=O` [Compound 1], the half-maximal inhibitory concentration (IC50) was in the range of 1000 to 10000 nM in data set [1], 10 to 100 nM in data set [4] and 1000 to 10000 nM in data set [5].

As for `COc1ncc(-c2nc(N3CCOCC3)nc3c(CNc4ccc(C(=O)NO)cc4F)cc(F)cc23)cc1NS(C)(=O)=O` [Compound 36], the IC50 in data set [4] lay within 10 to 100 nM; in data set [5], 10 to 100 nM; in data set [7], 100 to 1000 nM.

As for `COc1ncc(-c2nc(N3CCOCC3)nc3c(CN4CCC(OCCC(=O)NO)CC4)cc(F)cc23)cc1NS(C)(=O)=O` [Compound 11], the IC50 was 1000 to 10000 nM in data set [1], not above 10 nM in data set [4] and 100 to 1000 nM in data set [5].

For the compound `COc1ncc(-c2nc(N3CCOCC3)nc3c(CN4CCC(N5CCC(C(=O)NO)CC5)CC4)cc(F)cc23)cc1NS(C)(=O)=O` [Compound 14], the IC50 is 1000 to 10000 nM in data set [1], 10 to 100 nM in data set [4] and 1000 to 10000 nM in data set [5].

What is called IC50 is the concentration that gives 50% inhibition.
